Reference: patent US20260355330A1, “CELL PENETRATING PEPTIDES AND USES THEREOF” (VECTIOPEP OÜ, priority 2022, published 2026)
Positions of bridges follow the written chain, without caps; N, C: chain ends. Non-standard residues stand in square brackets, D forms with d. Residues, ends and D or L forms follow the SMILES beside them. Chains are numbered I, II in the order given. *: point of attachment. Arachidoyl = CCCCCCCCCCCCCCCCCCCC(=O)*; Stearoyl = CCCCCCCCCCCCCCCCCC(=O)*; Palmitoyl = CCCCCCCCCCCCCCCC(=O)*; Orn = NCCC[C@H](N)C(=O)O; Dab = NCC[C@H](N)C(=O)O

Experiments:
spleen of BALB/c mice = assay: In vivo delivery of mRNA with CPPs - reporter levels in the spleen; settings: for Efficacy of mRNA delivery into the spleen in vivo / Delivery of mRNA in vivo compared to NF54 and/or NF55: in words; for Efficacy of mRNA delivery into the spleen in vivo: FIG. 5 / Table 5; for Reporter levels in the spleen (RLU): mRNA, tail vein injection, spleens harvested 16 hours after single injection, whole tissue homogenate; for Delivery of mRNA in vivo compared to NF54 and/or NF55: comparator NF54 and/or NF55
Procedure: FIG. 5: Delivery of mRNA with CPPs in vivo—reporter levels in the spleen. Spleens were harvested post mortem 16 hours post-injection. The reporter levels (RLU) were evaluated from the whole tissue homogenate.
The transfection complexes (CPP/mRNA) were formed using 10 μg of mRNA mixed with each peptide at indicated charge ratios (CRs) in MQ water in a final volume of 100 μl. CRs were calculated theoretically and account for both the positive charges of the peptide and negative charges of the nucleic acid. The transfection complexes (CPP/mRNA and CPP/pDNA) were formed using 50 μg of mRNA mixed with each peptide at indicated charge ratios (CRs) in MQ water in a final volume of 168 μl. The complexes were incubated for 30 minutes at room temperature and then mixed with equal volume of 10% glucose (resulting in a final solution of 5% glucose in a total volume of 200 μl for 10 μg dose groups and 336 μl for 50 μg dose groups) and immediately injected intravenously via the tail vein.
The reporter gene (luciferase) expression levels were evaluated from the tissue homogenate post mortem 16-24 h after single injection.
CPPs and mRNA complexes were injected through the tail vein of BALB/c mice, spleens were harvested 16 hours after the single injection and reporter signal was measured from the whole tissue homogenate (FIG. 5 and Table 5).

CHO-K1 cells = assay: Delivery of reporter mRNA with CPPs in cell culture (luciferase luminescence 24 h post-transfection); format: cell-based; settings: for Average RLU/mg (reporter levels post-transfection of mRNA): firefly luciferase mRNA, 0.1 μg per well, charge ratio 3:1, serum containing media, 24 h, RLU normalised to total protein in lysate
Procedure: FIG. 1: Delivery of reporter mRNA with CPPs in cell culture—evaluation of reporter levels post-transfection (relative light units normalised to total protein in the cell lysate (RLU/mg)). Naked mRNA treated cells were used as controls and Lipofectamine3000 (LF3000) was used to compare the transfection efficacy with a liposome-based transfection reagent.
Adherent CHO-K1 cells were grown in Dulbecco's Modified Eagle's Medium (DMEM), which were supplemented with 0.1 mM non-essential amino acids, 1.0 mM sodium pyruvate, 100 U/ml penicillin, and […]. For complete media, 10% (final) fetal bovine serum (FBS) was added. Cells were maintained in a humidified incubator at 37 °C, 5% CO2. Cell viability and confluence was assessed daily and the cell density was reduced regularly. For cell counting, we used the CytoSMART cell counter accompanied by 0.4% trypan blue staining prior measurement. The multi-well plates with cell cultures used for experiments were incubated in a humidified incubator at 37 °C, 5% CO2.
For in vitro experiments 0.1 μg of nucleic acid (plasmid DNA (pDNA) or mRNA) was used per 96-well plate well. For CPP/NA complex formation, the diluted NA was mixed with CPP in water. Complexes were formed based on the theoretical charge ratio (CR) of positive charges from the peptide in excess to the negative charges from nucleic acid backbone, at charge ratio 3:1 with peptide in excess. Commercial reagent Lipofectamine3000 (LF3000) was used according to the manufacturer's recommendations for the transfection of adherent cells.
For reporter luminescence (expressed from firefly luciferase encoding mRNA or plasmid pDNA) assessment in adherent cell culture, 10,000 cells per 96-well plate well were seeded in 100 μl of media one day prior to transfection. Shortly before transfection, cell media was replaced with 100 μl of serum containing (10% foetal bovine serum) DMEM media. CPPs and mRNA or pDNA were mixed at a charge ratio 3:1 in ultrapure water and incubated at room temperature before addition to cells in serum containing media. Cells were transfected with 0.1 μg of mLuc per well.
24 hours post-transfection, the media was aspirated, cells were washed with 1×PBS, and 30 μl of lysis buffer (0.1% Triton X100 in 1×PBS) was added. Cells were incubated with lysis buffer for 20 min. to lyse the cells. From the lysate, 20 μl was transferred to a black frame white well 96-well plate for luminescence measurement after addition of substrate luciferin (PerkinElmer) in buffer. The luminescence signal was detected with GloMax® 96 microplate luminometer equipped with GloMax® 1.9.2 software (Promega). RLU values were converted to RLU/mg by normalization to total protein in cell lysate, reflecting total number of cells. For protein detection, a Pierce™ BCA Protein Assay Kit was used.
The present inventors have previously reported CPPs developed from the NickFect (NF) and PepFect (PF) families for plasmid (pDNA), siRNA and miRNA delivery (see, e.g. WO 2020/144317, WO 2010/039088 and WO 2012/113846). With the emergence of mRNA-based therapeutics, it was decided to investigate peptides for their ability to deliver mRNA. It was assumed that CPPs that are efficient for siRNA and miRNA delivery, e.g. histidine containing CPPs (Porosk et. al. (2019)), may be good candidates for the delivery of mRNA. Therefore, CPPs from each main family (NF55-, PF14- and NF70-derived CPPs) were tested for mRNA delivery/transfection. Naked mRNA treated and untreated cells were used as control groups. LF3000 was used to compare the transfection efficacy of liposome-based transfection reagents with the CPPs (FIG. 1).

SMILES | Efficacy of mRNA delivery into the spleen in vivo (spleen of BALB/c mice) | Reporter levels in the spleen (RLU) (spleen of BALB/c mice) | Average RLU/mg (reporter levels post-transfection of mRNA) (CHO-K1 cells) | Delivery of mRNA in vivo compared to NF54 and/or NF55 (spleen of BALB/c mice) | Efficiency of mRNA transfection/delivery (CHO-K1 cells; in words, FIG. 1 / Table 2, cell culture) | Delivery of mRNA compared to NF54 (CHO-K1 cells; in words, comparator NF54) | Delivery of mRNA compared to NF55 (CHO-K1 cells; in words, comparator NF55) | mRNA in vivo spleen delivery efficiency relative to NF70 (spleen of BALB/c mice; vs NF70, 16 h post-injection) | mRNA in vivo spleen delivery efficiency relative to PF1452 (spleen of BALB/c mice; vs PF1452, 16 h post-injection)
CCCCCCCCCCCCCCCC(=O)N[C@@H](C)C(=O)NCC(=O)N[C@@H](Cc1ccc(O)cc1)C(=O)N[C@@H](CC(C)C)C(=O)N[C@@H](CC(C)C)C(=O)NCC(=O)NCCC[C@H](N)C(=O)N[C@H](C(=O)N[C@@H](CC(N)=O)C(=O)N[C@@H](CC(C)C)C(=O)N[C@@H](CCCCN)C(=O)N[C@@H](C)C(=O)N[C@@H](CC(C)C)C(=O)N[C@@H](C)C(=O)N[C@@H](C)C(=O)N[C@@H](CC(C)C)C(=O)N[C@@H](C)C(=O)N[C@@H](CCCCN)C(=O)N[C@@H](C)C(=O)N[C@H](C(=O)N[C@@H](CC(C)C)C(N)=O)[C@@H](C)CC)[C@@H](C)CC [NF419] | delivered mRNA into the spleen in vivo with high efficacy | 179 114 RLU | 491 000 000 RLU/mg |  |  |  |  |  | 
CCCCCCCCCCCCCCCC(=O)N[C@@H](C)C(=O)NCC(=O)N[C@@H](Cc1ccc(O)cc1)C(=O)N[C@@H](CC(C)C)C(=O)N[C@@H](CC(C)C)C(=O)NCC(=O)NCCCC[C@H](N)C(=O)N[C@H](C(=O)N[C@@H](CC(N)=O)C(=O)N[C@@H](CC(C)C)C(=O)N[C@@H](CCCCN)C(=O)N[C@@H](C)C(=O)N[C@@H](CC(C)C)C(=O)N[C@@H](C)C(=O)N[C@@H](C)C(=O)N[C@@H](CC(C)C)C(=O)N[C@@H](C)C(=O)N[C@@H](CCCCN)C(=O)N[C@@H](C)C(=O)N[C@H](C(=O)N[C@@H](CC(C)C)C(N)=O)[C@@H](C)CC)[C@@H](C)CC [NF420] (I: H-KINLKALAALAKAIL-NH2 / II: Palmitoyl-AGYLLG; amide I:1-II:C) |  | 81 271 RLU | 548 000 000 RLU/mg |  |  |  |  |  | 
CCCCCCCCCCCCCCCC(=O)N[C@@H](C)C(=O)NCC(=O)N[C@@H](Cc1ccc(O)cc1)C(=O)N[C@@H](CC(C)C)C(=O)N[C@@H](CC(C)C)C(=O)NCC(=O)NCC[C@H](N)C(=O)N[C@@H](CC(C)C)C(=O)N[C@@H](CCCCN)C(=O)N[C@@H](C)C(=O)N[C@@H](CC(C)C)C(=O)N[C@@H](C)C(=O)N[C@@H](C)C(=O)N[C@@H](CC(C)C)C(=O)N[C@@H](C)C(=O)N[C@@H](CCCCN)C(=O)N[C@@H](C)C(=O)N[C@H](C(=O)N[C@@H](CC(C)C)C(N)=O)[C@@H](C)CC [NF425] (I: H-[Dab]LKALAALAKAIL-NH2 / II: Palmitoyl-AGYLLG; amide I:1-II:C) | delivered mRNA into the spleen in vivo with high efficacy | 209 700 RLU | 106 000 000 RLU/mg |  |  |  |  |  | 
CCCCCCCCCCCCCCCCCCCC(=O)N[C@@H](C)C(=O)NCC(=O)N[C@@H](Cc1ccc(O)cc1)C(=O)N[C@@H](CC(C)C)C(=O)N[C@@H](CC(C)C)C(=O)NCC(=O)NCC[C@H](N)C(=O)N[C@@H](CC(C)C)C(=O)N[C@@H](CCCCN)C(=O)N[C@@H](C)C(=O)N[C@@H](CC(C)C)C(=O)N[C@@H](C)C(=O)N[C@@H](C)C(=O)N[C@@H](CC(C)C)C(=O)N[C@@H](C)C(=O)N[C@@H](CCCCN)C(=O)N[C@@H](C)C(=O)N[C@H](C(=O)N[C@@H](CC(C)C)C(N)=O)[C@@H](C)CC [NF426] (I: H-[Dab]LKALAALAKAIL-NH2 / II: Arachidoyl-AGYLLG; amide I:1-II:C) | delivered mRNA into the spleen in vivo with high efficacy | 259 807 RLU | 1 960 000 000 RLU/mg | good improvement in mRNA delivery in vivo over NF55 | the most efficient | equivalent delivery of cargo such as mRNA to NF54 | good improvement in delivery of mRNA over NF55 |  | 
CCCCCCCCCCCCCCCCCC(=O)N[C@@H](C)C(=O)NCC(=O)N[C@@H](Cc1ccc(O)cc1)C(=O)N[C@@H](CC(C)C)C(=O)N[C@@H](CC(C)C)C(=O)NCC(=O)NCCC[C@H](N)C(=O)N[C@@H](CC(C)C)C(=O)N[C@@H](CCCCN)C(=O)N[C@@H](C)C(=O)N[C@@H](CC(C)C)C(=O)N[C@@H](C)C(=O)N[C@@H](C)C(=O)N[C@@H](CC(C)C)C(=O)N[C@@H](C)C(=O)N[C@@H](CCCCN)C(=O)N[C@@H](C)C(=O)N[C@H](C(=O)N[C@@H](CC(C)C)C(N)=O)[C@@H](C)CC [NF430] (I: H-[Orn]LKALAALAKAIL-NH2 / II: Stearoyl-AGYLLG; amide I:1-II:C) | highest reporter levels after mRNA delivery into the spleen in vivo | 405 318 RLU | 766 000 000 RLU/mg |  |  |  |  |  | 
CCCCCCCCCCCCCCCCCC(=O)N[C@@H](C)C(=O)NCC(=O)N[C@@H](Cc1ccc(O)cc1)C(=O)N[C@@H](CC(C)C)C(=O)N[C@@H](CC(C)C)C(=O)NCC(=O)NCC[C@H](N)C(=O)N[C@@H](CC(C)C)C(=O)N[C@@H](CCCCN)C(=O)N[C@@H](C)C(=O)N[C@@H](CC(C)C)C(=O)N[C@@H](C)C(=O)N[C@@H](C)C(=O)N[C@@H](CC(C)C)C(=O)N[C@@H](C)C(=O)N[C@@H](C)C(=O)N[C@@H](CCCCN)C(=O)N[C@H](C(=O)N[C@@H](CC(C)C)C(N)=O)[C@@H](C)CC [NF436] (I: H-[Dab]LKALAALAAKIL-NH2 / II: Stearoyl-AGYLLG; amide I:1-II:C) | highest reporter levels after mRNA delivery into the spleen in vivo | 825 783 RLU | 380 000 000 RLU/mg | significantly improved delivery of mRNA in vivo over both NF54 and NF55 |  |  |  | 100 times | 43 times
CCCCCCCCCCCCCCCCCC(=O)N[C@@H](C)C(=O)NCC(=O)N[C@@H](Cc1ccc(O)cc1)C(=O)N[C@@H](CC(C)C)C(=O)N[C@@H](CC(C)C)C(=O)NCC(=O)NC[C@H](N)C(=O)N[C@H](C(=O)N[C@@H](CC(N)=O)C(=O)N[C@@H](CC(C)C)C(=O)N[C@@H](CCCCN)C(=O)N[C@@H](C)C(=O)N[C@@H](CC(C)C)C(=O)N[C@@H](C)C(=O)N[C@@H](C)C(=O)N[C@@H](CC(C)C)C(=O)N[C@@H](C)C(=O)N[C@@H](CCCCN)C(=O)N[C@@H](C)C(=O)N[C@H](C(=O)N[C@@H](CC(C)C)C(N)=O)[C@@H](C)CC)[C@@H](C)CC [NF550] |  | 33 032 RLU | 441 000 000 RLU/mg |  |  |  |  |  | 
